# Experimental data: US5609872A, “Peptides comprising a protective epitope from blood stages of plasmodium falciparum” (priority 1990, dated 1997)
# Ends that are not written are not given here.
# Tested on: binding of mAb 33G2 to Pf11/RESA
# Assay: not given
# Settings: peptide mixed with a fixed concentration of the mAb; up to 200 μg/ml tested; cited from earlier work
row,Substance,peptide concentration giving complete inhibition of mAb 33G2 immunofluorescence
1,(EEVVEEVVP)2: synthetic peptide corresponding to repeated sequence in antigen Pf11.1 (also: dimer of the repeat (EEVVEEVVP)2),100 µg/mL
2,Y (SVTEEIAEEDK)2: peptide corresponding to a dimer of amino acids 2-12 in antigen Ag332 (YSVTEEIAEEDK; also: dimer of the peptide),0.2 µg/mL

# Tested on: mAb 33G2
# Assay: PEPSCAN ELISA of rod-bound peptides with mAb 33G2
# Type: binding, human
# Settings: culture supernatant with mAb 33G2 (approx. 10 μg/ml) diluted 1:100; N-acetylated peptides on rods
# Method: The detailed epitope specificity on the single amino acid level for the mAb 33G2 was performed using the multiple peptide synthesis technique (PEPSCAN) developed by Geysen et al. (J. Immunol. Methods 102, 259-274, 1987). Peptides were synthesized on polyethylene rods on which polymers of polyacrylic acid had been formed by […]. Polyethylene rods and Pmoc L-amino acids performed as active esthers (Cambridge Research Biochemicals, UK) were used for synthesis according to instructions of the manufacturer. The N-terminals of all peptides were acetylated. As a basis for the mAb 33G2 epitope analysis, the sequence of amino acid residues 1-19 [SEQ ID NO.: 15] (ESVTEEIAEEDKSVIEEAV) of Ag332 (Mattei, D., Berzins, K., Wahlgren, M., Udomsangpetch, R., Perlmann, P., Griesser, H. W., Scherf, A., M uller-Hill, B., Bonnefoy, S., Guillotte, M., Langsley, G., Pereira da Silva, L. and Mercereau-Puijalon, O. (1989) Cross-reactive antigenic determinants present on different Plasmodium falciparum blood-stage antigens. Parasite Immunol. 11, 15-30) was used, containing sequences of the peptides with the highest reactivity with the mAb (Udomsangpetch, R., Carlsson, J., W ahlin, B., Holmquist, G., Ozaki, L. S., Scherf, A., Mattei, D., Mercereau-Puijalon, O., Uni, S., Aikawa, M., Berzins, K. and Perlmann, P. (1989) Reactivity of the human monoclonal antibody 33G2 with repeated sequences of three distinct Plasmodium falciparum antigens. J. Immunol. 142, 3620-3626). All possible overlapping heptapeptides, hexpeptides, pentapeptides and tetrapeptides covering the mentioned sequence were synthesized and their reactivity with mAb 33G2 was analysed by ELISA as described by Geysen et al. (J. Immunol. Methods 102, 259-274, 1987). Culture supernatant containing mAb 33G2 (approx. 10 μg/ml), was diluted 1:100. Peptide containing rods were washed in phosphate-buffered saline with 0.05% Tween 20 between all steps in ELISA. Bound antibodies were detected with a rabbit antihuman IgM-alkaline phosphatase conjugate (Sigma, St. Louis, Mo.) using p-nitrophenyl phosphate, disodium salt (Sigma) as substrate.
row,Substance,"reactivity with mAb 33G2 in ELISA (absorbance at 405 nm), in words"
1,"ESVTEEI [glu-ser-val-thr-glu-glu-ile, heptapeptide, amino acids 1-7 of Ag332]",showed reactivity
2,IADEV: pentapeptide epitope analog of residue 3-7 of Ag332,recognized
3,LVEEV: pentapeptide epitope analog of residue 3-7 of Ag332,recognized
4,"SVTEEIA [ser-val-thr-glu-glu-ile-ala, heptapeptide, amino acids 2-8 of Ag332]",showed reactivity
5,"TEEIAEE [thr-glu-glu-ile-ala-glu-glu, heptapeptide, amino acids 4-10 of Ag332]",showed reactivity
6,"VTEEIAE [val-thr-glu-glu-ile-ala-glu, heptapeptide, amino acids 3-9 of Ag332]",showed reactivity
7,VVEEV: pentapeptide epitope analog of residue 3-7 of Ag332; printed as SEQ ID NO.:19 (LVEEV),recognized
8,YLDEV: pentapeptide epitope analog of residue 3-7 of Ag332,did not react
9,ile-ala-asp-glu-ile (IADEI),recognized
10,ile-thr-glu-glu-ile (ITEEI),recognized
11,"ser-val-thr-glu-glu-ile (SVTEEI) [hexapeptide, amino acids 2-7 of Ag332]",recognized
12,"thr-glu-glu-ile-ala-glu (TEEIAE) [hexapeptide, amino acids 4-9 of Ag332]",recognized
13,val-ala-glu-glu-ile (VAEEI),recognized
14,"val-thr-glu-glu-ile-ala (VTEEIA) [hexapeptide, amino acids 3-8 of Ag332]",recognized
